Where no end group is shown, it is not given here.
Experiments:
C. albicans [1] = experiment: ROS H2O2 luminescence assay, C. albicans; assay type: cell-based, Candida albicans; settings: 10 μM, 4 hours, ROS-Glo H2O2 assay, versus cells + PBS
Method: (§1) The assay uses an H2O2 substrate that reacts directly with H2O2 to generate a luciferin precursor [55]. It was predicted that exposure of the microorganisms to the prodrug would lead to alterations in their normal physiological processes thus triggering a stress response and inducing the generation of ROS. […] This is consistent with previous studies wherein ROS production is credited as the secondary event of the fungicidal mechanism of P-113 [56]. […]
(§2) peptides for 3 hours at 37 °C. Next, cells were washed three times with sterile PBS. Mammalian […]
(§3) PBS (Thermo Scientific) at room temperature for 20 min. […]
(§4) Cells were cultured in complete Dulbecco’s
(§5) Streptomycin), at 37 °C and 5% CO2. Passages were conducted with 0.25% Trypsin EDTA before […]
(§6) signal that is proportional to H2O2 concentration. Cells were seeded into 96-well plates (Corning, […]
(§7) then incubated for 4 hours at 37 °C before 100µl of ROS-Glo™ Detection Solution was added to each well. Finally, the plate was incubated for 20 minutes at room temperature and the relative luminescence was recorded using a plate reader (Synergy H1, BioTek). […]
(§8) LoB = meanblank + 1.645 (SDblank) […]
(§9) LoD = LoB + 1.645 (SDlow concentration sample).
(§10) Statistical Analysis. Statistical analysis was conducted using GraphPad Prism 10. […]
(§11) A P-value of < 0.05 was […]
(§12) considered significant. […]

SAP9 = biological target: T1, SAP9 (Candida albicans, UniProt Q59SU1); experiment: Enzyme digestion by recombinant SAP9 (MALDI-TOF / ESI-MS); assay type: biochemical; settings: 37 °C; for Cleavage / degradation by SAP9: 300 nM recombinant SAP9, 3 h, 9.5 mM MES, 2.7 mM KCl, 140 mM NaCl pH 5.5, 455 µM peptide, MALDI-TOF (ESI-MS for P-113)
T1 construct: purchased MyBioSource (San Diego, CA)
T1 sequence (Q59SU1 18-544): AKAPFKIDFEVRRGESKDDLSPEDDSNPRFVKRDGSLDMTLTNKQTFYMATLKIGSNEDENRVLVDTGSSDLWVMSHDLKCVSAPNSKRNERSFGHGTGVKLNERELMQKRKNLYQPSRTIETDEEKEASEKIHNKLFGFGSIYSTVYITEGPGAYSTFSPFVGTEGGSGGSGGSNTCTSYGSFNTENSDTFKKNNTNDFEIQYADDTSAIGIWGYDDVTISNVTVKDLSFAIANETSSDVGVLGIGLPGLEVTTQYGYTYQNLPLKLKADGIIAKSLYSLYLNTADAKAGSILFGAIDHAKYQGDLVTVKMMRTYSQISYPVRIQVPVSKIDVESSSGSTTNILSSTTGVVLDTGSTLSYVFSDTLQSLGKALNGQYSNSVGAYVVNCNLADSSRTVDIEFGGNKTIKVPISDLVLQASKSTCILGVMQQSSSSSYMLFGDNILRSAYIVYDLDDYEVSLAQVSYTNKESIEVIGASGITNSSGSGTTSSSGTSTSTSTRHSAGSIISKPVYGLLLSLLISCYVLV
Method: (§13) Probe activation, kinetics, and cytotoxicity.
(§14) Enzyme digestion. SAP9 and RgpB cleavage were both performed with 455 µM of peptide. […] Then, 10 µL of the enzyme at the appropriate concentration was added. An optimized final concentration of 300 nM for SAP9 and 200 nM for RgpB were used. The solution was incubated at 37 °C for 3 hours for RgpB and SAP9 for optimal cleavage.

P. gingivalis [2] = experiment: ROS H2O2 luminescence assay, P. gingivalis; assay type: cell-based, Porphyromonas gingivalis; settings: 10 μM, 4 hours, ROS-Glo H2O2 assay, versus cells + PBS
Method: as §1, §2, §3, §4, §5, §6, §7, §8, §9, §10, §11, §12

C. albicans [3] = experiment: TEM of cell morphology, C. albicans; assay type: cell-based, Candida albicans; settings: 3 hours at 37 °C; S1 at 40 µM
From the text: (§15) Finally, the target microorganisms were also imaged using transmission electron microscopy (TEM) to visualize the cell morphology. Figure 3C presents C. albicans cells. On the left, the untreated cells show a rigid and intact membrane in contrast to the […] (+ S1) showing decreased cell density and clear destruction of the membranes. This obvious change in morphology is seen at other magnifications (Supplementary Figure S19). […]
(§16) standard curve: ∆PLCy5.5 vs. [fully-digested FRET probe]. Data were then fitted to the following Michaelis-Menten equation: ! = !!"#[…]. […]
(§17) amino acid sequences were provided. PEP-FOLD then employs a physics-based energy function […]
(§18) structures for the given peptide sequence. […]
(§19) dynamics sampling approach. […]
(§20) energy and the agreement with experimental or theoretical constraints. The algorithm selects the […]
(§21) allowed to grow overnight. […]
as §2
(§22) PBS (Thermo Scientific) at room temperature for 20 min. Cells were imaged by a confocal […]
(§23) Transmission Electron Microscopy. […]
(§24) by air drying overnight. Cellular morphology was conducted using the same microscope. Here, […]
(§25) nanomedicine lab (UCSD NanoEngineering). Cells were cultured in complete Dulbecco’s […]
as §5

P. gingivalis [4] = experiment: Kirby-Bauer disk diffusion, P. gingivalis; assay type: cell-based, Porphyromonas gingivalis; settings: disks treated with 1 mM, five-day incubation at 37 °C
P. gingivalis [5] = experiment: XTT viability assay, P. gingivalis; assay type: cell-based, Porphyromonas gingivalis; settings: 10 µM
RgpB = biological target: T2, RgpB (Porphyromonas gingivalis, UniProt P95493); experiment: Enzyme digestion by recombinant RgpB (MALDI-TOF / ESI-MS); assay type: biochemical; settings: 37 °C
T2 construct: gift from Professor Anthony O'Donoghue (UC San Diego)
T2 sequence (P95493 230-736): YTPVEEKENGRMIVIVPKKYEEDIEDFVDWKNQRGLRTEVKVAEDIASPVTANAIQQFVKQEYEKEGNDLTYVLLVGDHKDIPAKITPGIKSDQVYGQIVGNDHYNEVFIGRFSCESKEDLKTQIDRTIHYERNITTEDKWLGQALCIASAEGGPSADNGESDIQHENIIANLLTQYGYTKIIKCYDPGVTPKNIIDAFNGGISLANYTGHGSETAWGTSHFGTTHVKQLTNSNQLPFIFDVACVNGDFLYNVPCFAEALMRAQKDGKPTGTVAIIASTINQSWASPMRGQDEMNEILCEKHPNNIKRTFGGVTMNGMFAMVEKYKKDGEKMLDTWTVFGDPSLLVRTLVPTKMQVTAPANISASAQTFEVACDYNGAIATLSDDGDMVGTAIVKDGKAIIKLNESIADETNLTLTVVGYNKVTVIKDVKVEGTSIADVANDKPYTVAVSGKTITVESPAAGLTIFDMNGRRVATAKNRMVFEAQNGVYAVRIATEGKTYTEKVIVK
Method: as §13, §14

P. gingivalis [6] = experiment: TEM of cell morphology, P. gingivalis; assay type: cell-based, Porphyromonas gingivalis; settings: 3 hours at 37 °C; G1 at 40 µM
From the text: as §15, §16, §17, §18, §19, §20, §21, §2, §22, §23, §24, §25, §5

C. albicans [7] = experiment: XTT viability assay, C. albicans; assay type: cell-based, Candida albicans; settings: intact peptide, 10 µM, 3 h at 37 °C, absorbance 490 nm, sextuplet measurements
Method: Fungal culture. In situ culturing C. albicans (ATCC 90028) from lyophilized stock (KWIK-STIK, VWR) was conducted on Sabouraud dextrose agar plates (Sigma-Aldrich) 2 to 5 days in advance of the antifungal assay. The plates were then incubated at 30°C and pearl-like colonies were observed, indicative of C. albicans. Single colonies were then extracted with sterilized inoculation loops and inoculated in 3 mL yeast extract peptone dextrose (YEPD) medium (2% Bacto^TMpeptone, 2% Dextrose, 1% Yeast extract in H2O) using Biological Safety Level 2 (BSL-2) practices and procedures. Note, the broth was autoclaved before use and stored at room temperature. […] The culture was finally diluted 1:100 and the OD600 was measured wherein OD600 = 0.5 a.u. correlates to approximately 1 × 10^6 cells/ mL in 100 µL RPMI-1640 medium with L-glutamine and 3-(N-morpholino)propane sulfonic acid (MOPS) without sodium bicarbonate, pH 7.0. […]
Viability assay. The percent toxicity was calculated using an XTT (2,3-bis-(2-methoxy-4-nitro-5-sulfophenyl)-2H-tetrazolium-5-carboxanilide) colorimetric assay (Biotium) wherein viable cells form an orange formazan product upon reduction. […] The absorbance of the formazan dye was measured at a wavelength of 490 nm using a microplate reader. Here, the absorbance is directly proportional to the number of viable cells present in each well. […]

F. nucleatum = experiment: XTT viability assay, F. nucleatum; assay type: cell-based, Fusobacterium nucleatum; settings: intact peptide
C. albicans [8] = experiment: Kirby-Bauer disk diffusion, C. albicans; assay type: cell-based, Candida albicans; settings: disks treated with 1 mM, five-day incubation at 30 °C
C. albicans [9] = tested on: C. albicans; design: method as in PMID 27458227; settings: previous work; cited from earlier work
HEK293T [10] = experiment: XTT viability assay, HEK293T; assay type: cell-based, human
HEK293T [11] = experiment: Confocal microscopy of membrane integrity, HEK293T; assay type: cell-based, human; settings: 100 µM prodrug, 3 hours at 37 °C, CellBrite Fix Membrane Stain 640
Method: as §16, §17, §18, §19, §20, §21, §2, §22, §23, §24, §25, §5, §6

In the case of “Ac-AKRHHGYKRKFHGGVKKKDVVDGGDDDDDD-NH2 [S1]”, the “H2O2 ROS generation, relative luminescence” value (C. albicans [1]) is reported as “six-fold increase”, the “Cleavage / degradation by SAP9” value (SAP9) is reported as “obvious mass peaks corresponding to the cleaved fragments” and the “Cleavage by SAP9, S1 and G1 co-incubated” value (SAP9; joint solution of S1 and G1, SAP9 300 nM, 3 hours, MALDI-TOF) is reported as “S1 converting to S1 fragment”. For the same molecule, the “H2O2 ROS generation, relative luminescence” value (P. gingivalis [2]) was “little luminescence”, the “Cell morphology by TEM” value (C. albicans [3]) was “decreased cell density and cell rupturing” and the “Growth inhibition in disk diffusion test” value (P. gingivalis [4]) was “No growth inhibition”. The “Change of percent toxicity upon cleavage” value (P. gingivalis [5]; S1 pre-cleaved in vitro by 300 nM recombinant SAP9 versus intact (30%)) was “nearly doubled”, the Percent toxicity (P. gingivalis [5]; intact peptide, 3 h at 37 °C, absorbance 490 nm, sextuplet measurements) was 30% and the “Cleavage by RgpB, S1 and G1 co-incubated” value (RgpB; joint solution of S1 and G1, RgpB 300nM, 3 hours, MALDI-TOF) was “S1 remaining intact”. For the same molecule, the “Cell morphology by TEM” value (P. gingivalis [6]) was “intact cell structures”, the Percent toxicity (C. albicans [7]) was 70% and the Percent toxicity (F. nucleatum; 10 µM, 3 h at 37 °C) was 15%. The “Percent toxicity, highest over the titration” value (F. nucleatum; all tested concentrations) was at most 50%, the “Inhibited growth relative to the positive control treatment (FLZ)” value (C. albicans [8]; disk diffusion, diameter relative to fluconazole) was “approximately 70%” and the “Growth inhibition in disk diffusion test” value (C. albicans [8]) was “Obvious growth inhibition”.

With `OC(Cn1cncn1)(Cn1cncn1)c1ccc(F)cc1F` [FLZ, fluconazole, reference compound] the “Growth inhibition in disk diffusion test” value (C. albicans [8]) was “Obvious growth inhibition”.

With “Ac-AKRHHGYKRKFH-NH2 [P-113, reference compound]” the “H2O2 ROS generation, relative luminescence” value (C. albicans [1]) was “six-fold increase”, the “Cleavage / degradation by SAP9” value (SAP9) was “no degradation” and the “H2O2 ROS generation, relative luminescence” value (P. gingivalis [2]) was “six-fold increase”. For the same molecule, the “Growth inhibition in disk diffusion test” value (P. gingivalis [4]) was “Colony growth is inhibited”, the “Cleavage / degradation by RgpB” value (RgpB; 200 nM recombinant RgpB, 3 h, 0.2 M Tris HCl pH 7.6, 5 mM CaCl2, 100 mM NaCl, 40 mM TCEP, 455 µM peptide, MALDI-TOF (ESI-MS for P-113)) was “no degradation” and the MIC (C. albicans [9]) was 10 µM. For the same molecule, the “Growth inhibition in disk diffusion test” value (C. albicans [8]) was “Obvious growth inhibition” and the “MIC for HEK293T relative to MIC for the oral microorganisms” value (HEK293T [10]) was about 100 times.

With AKRHHGYKRKFHGGAGPRIDGGDDDDDD-NH2 [G1] the “Membrane integrity by confocal microscopy” value (HEK293T [11]) was “membrane remained intact” and the “Toxicity to HEK293T compared to P-113” value (HEK293T [10]; intact prodrug, 10 µM, XTT) was “decreased toxicity by nearly half”.

Reference: paper PMC10879876, “Activatable prodrug for controlled release of an antimicrobial peptide via the proteases overexpressed in Candida albicans and Porphyromonas gingivalis” (Theranostics, 2024)
